Calls of active or inactive are those of the source.

Assay [1] has as its target T1, Succinate--CoA ligase [ADP-forming] subunit beta, mitochondrial (Homo sapiens, UniProt Q9P2R7).
T1 sequence (Q9P2R7 whole entry): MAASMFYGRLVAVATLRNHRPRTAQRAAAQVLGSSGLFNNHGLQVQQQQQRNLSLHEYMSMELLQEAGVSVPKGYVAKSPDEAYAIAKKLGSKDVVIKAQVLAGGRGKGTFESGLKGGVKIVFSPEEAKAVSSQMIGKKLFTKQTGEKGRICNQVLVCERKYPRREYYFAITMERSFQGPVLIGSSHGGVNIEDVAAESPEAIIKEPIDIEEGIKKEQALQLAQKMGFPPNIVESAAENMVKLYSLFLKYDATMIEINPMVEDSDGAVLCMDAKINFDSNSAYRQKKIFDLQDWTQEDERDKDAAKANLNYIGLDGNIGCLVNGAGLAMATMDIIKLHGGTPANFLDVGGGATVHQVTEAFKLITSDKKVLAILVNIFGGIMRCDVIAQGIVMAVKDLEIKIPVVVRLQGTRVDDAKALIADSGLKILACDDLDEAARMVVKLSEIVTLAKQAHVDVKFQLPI

In assay [2] the target is Casein kinase I isoform alpha (Homo sapiens, UniProt P48729).
The target of assay [3] is T2, Mitogen-activated protein kinase kinase kinase kinase 2 (Homo sapiens, UniProt Q12851).
T2 sequence (Q12851 whole entry): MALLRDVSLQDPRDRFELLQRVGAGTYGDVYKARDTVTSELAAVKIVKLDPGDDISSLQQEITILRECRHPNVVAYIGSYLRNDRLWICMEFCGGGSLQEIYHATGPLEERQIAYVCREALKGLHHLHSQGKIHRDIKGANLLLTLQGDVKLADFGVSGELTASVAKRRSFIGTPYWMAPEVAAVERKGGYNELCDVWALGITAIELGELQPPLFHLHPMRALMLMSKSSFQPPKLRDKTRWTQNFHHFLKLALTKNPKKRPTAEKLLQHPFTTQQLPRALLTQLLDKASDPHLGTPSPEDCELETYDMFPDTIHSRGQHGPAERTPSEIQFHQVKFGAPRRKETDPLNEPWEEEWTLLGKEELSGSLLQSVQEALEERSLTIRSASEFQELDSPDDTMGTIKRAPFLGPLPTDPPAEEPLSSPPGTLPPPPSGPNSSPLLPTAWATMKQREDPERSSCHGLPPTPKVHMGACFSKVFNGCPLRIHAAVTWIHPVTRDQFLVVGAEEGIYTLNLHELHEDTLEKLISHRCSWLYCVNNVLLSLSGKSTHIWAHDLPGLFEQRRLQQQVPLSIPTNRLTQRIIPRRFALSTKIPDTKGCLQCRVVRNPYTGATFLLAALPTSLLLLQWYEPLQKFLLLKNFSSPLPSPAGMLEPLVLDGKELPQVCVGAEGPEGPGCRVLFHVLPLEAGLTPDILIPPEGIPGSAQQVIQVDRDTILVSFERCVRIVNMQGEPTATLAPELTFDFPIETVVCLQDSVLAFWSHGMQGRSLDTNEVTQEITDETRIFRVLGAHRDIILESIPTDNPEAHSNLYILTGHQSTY

The target in assay [4] is T3, Glycogen phosphorylase, liver form (Homo sapiens, UniProt P06737).
T3 sequence (P06737 whole entry): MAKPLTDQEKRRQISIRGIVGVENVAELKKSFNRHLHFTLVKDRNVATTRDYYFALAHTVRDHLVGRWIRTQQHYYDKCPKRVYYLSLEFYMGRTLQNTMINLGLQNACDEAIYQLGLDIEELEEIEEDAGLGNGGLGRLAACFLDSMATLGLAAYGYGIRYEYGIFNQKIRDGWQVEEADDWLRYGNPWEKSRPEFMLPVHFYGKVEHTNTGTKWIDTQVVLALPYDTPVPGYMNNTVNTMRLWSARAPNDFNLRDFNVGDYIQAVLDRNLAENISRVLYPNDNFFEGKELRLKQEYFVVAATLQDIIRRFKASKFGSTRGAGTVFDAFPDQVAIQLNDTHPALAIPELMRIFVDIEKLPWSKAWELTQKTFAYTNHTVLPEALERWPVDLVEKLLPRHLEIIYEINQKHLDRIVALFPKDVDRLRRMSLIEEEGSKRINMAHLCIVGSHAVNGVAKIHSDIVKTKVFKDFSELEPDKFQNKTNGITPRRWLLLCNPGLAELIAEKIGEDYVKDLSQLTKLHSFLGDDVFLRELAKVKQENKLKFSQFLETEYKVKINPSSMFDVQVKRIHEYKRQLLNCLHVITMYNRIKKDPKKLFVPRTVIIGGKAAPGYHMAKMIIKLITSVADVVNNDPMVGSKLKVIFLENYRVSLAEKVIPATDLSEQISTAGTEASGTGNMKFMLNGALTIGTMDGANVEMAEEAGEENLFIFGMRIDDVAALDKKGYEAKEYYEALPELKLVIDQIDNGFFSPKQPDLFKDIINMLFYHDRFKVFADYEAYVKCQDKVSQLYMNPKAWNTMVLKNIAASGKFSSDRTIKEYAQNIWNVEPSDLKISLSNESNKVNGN
The format is subcellular, K-562, COLO 205, SK-N-BE(2) and MV-4-11, Cell lysate. The following applies: read-out: Kd apparent.
Further: in the data inactive means no Kd found up to 30 µM.

Casein kinase I isoform alpha, sequence (P48729 whole entry, canonical isoform): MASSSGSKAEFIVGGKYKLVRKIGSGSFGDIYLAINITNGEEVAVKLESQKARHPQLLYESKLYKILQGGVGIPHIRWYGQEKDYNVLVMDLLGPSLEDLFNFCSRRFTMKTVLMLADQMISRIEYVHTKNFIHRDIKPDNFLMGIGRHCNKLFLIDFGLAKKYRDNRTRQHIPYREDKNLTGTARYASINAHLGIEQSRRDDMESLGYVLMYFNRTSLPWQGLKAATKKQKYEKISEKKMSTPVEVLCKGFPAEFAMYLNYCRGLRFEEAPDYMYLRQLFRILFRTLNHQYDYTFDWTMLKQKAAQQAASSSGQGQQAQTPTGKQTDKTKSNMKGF

With `CC(C)c1cc(CNc2nc(Nc3cc(C4CC4)[nH]n3)cc(N3CCN(C)CC3)n2)on1` [XL-228], the Kd in assay [1] is > 30 µM (inactive); in assay [2] it was > 30 µM (inactive); in assay [3], 0.352 µM (active); in assay [4] it was > 30 µM (inactive).
For the compound `CN1C/C=C/CCOc2cccc(c2)-c2ccnc(n2)Nc2cccc(c2)C1` [ZOTIRACICLIB], the Kd in assay [1] is > 30 µM (inactive); in assay [2], > 30 µM (inactive); in assay [3] it was 1.36 µM (active); in assay [4], > 30 µM (inactive).

(Values after ChEMBL document CHEMBL3991601, “The target landscape of clinical kinase drugs” (Science, 2017).)
